# According to patent US20260345584A1, “METHODS AND PHARMACEUTICAL COMPOSITIONS FOR TREATING CHEMOTHERAPY-INDUCED PERIPHERAL NEUROPATHY WITH EG5 INHIBITORS” (UNIVERSITY OF MIAMI, priority 2023, published 2026):
# Assays:
# [1] = system: skin gene expression; experiment: Mouse skin RNAseq; format: in vivo; conditions: mice, 2 mg/kg paclitaxel i.p. x4
# Protocol: The RNAseq data set was published in Cirrincione et al. (2022, Data 7: 72). Following differential gene expression analysis (FDR<0.01) comparing paclitaxel-treated to vehicle control animals (n=4), identified genes were queried in gProfiler and grouped by their molecular function. Using normalized gene counts, Kif genes were analyzed for their expression and plotted over time. […] Kif11 was queried in STRING to identify associated networks and interacting proteins compared to the RNAseq data set and differentially expressed genes were graphed in Prism 9.
# (§1) Molecular mechanisms underlying paclitaxel-induced microtubule fasciculation were then investigated. […] Peripheral neuropathy was correlated with these times points using von Frey behavioral testing, which determined that peak neuropathy was present at day 7 (D7). This identified several biological categories during peak neuropathy with the largest clusters being implicated in extracellular matrix organization (e.g. “ECM”, “collagen-containing ECM”, “collagen trimer”) and cell cycle regulation (e.g. “outer kinetochore”, “kinesin complex”, condensed chromosome, centromeric region”, “mitotic spindle”, “microtubules”), consistent with our findings in zebrafish. Interactome analysis using STRING (Szklarczyk et al., 2021, Nucl. Acids Res 49: D605-D612) to predict protein association networks further identified major clusters involved in cell cycle regulation, which contained various kinesins, microtubule and nucleus regulators, as well as one cluster annotated as “disulfide bond”, consistent with a role for oxidative signal activation (Leonard et al., 2011, Current opinion in chemical biology 15: 88-102) (shown in FIG. 3D).
# [2] = system: Eg5; experiment: Eg5 / phospho-Eg5 staining in mouse skin; format: in vivo; conditions: single injection, 20 mg/kg; basal and suprabasal keratinocytes
# Protocol: The mice in each cage were randomly allocated to different treatment groups. Food and water were available ad libitum and experiments were performed during the light cycle (7:00 am to 7:00 pm). Animals were euthanized via CO2 asphyxiation, followed by cervical dislocation. […] The animal's husbandry conformed with established NIH and Institutional Animal Care and Use Committee (IACUC) approved protocols.
# Paws and back skin were collected at predetermined time points, placed in 10% formalin, and stored overnight at 4 °C. Samples were embedded in paraffin and sectioned at 7 μm, deparaffinized, washed with PBS, and incubated at room temperature for 5 min in 0.1% Triton X-100 in PBS and then blocked for 30 min (5% BSA). Sections were incubated with primary antibody diluted in blocking solution, overnight at 4 °C in a humidity chamber. Following PBS washes, sections were incubated for 1 h at room temperature with a secondary antibody. Tissues were mounted and assessed for staining. Antibodies used were against detyrosinated tubulin Millipore AB3201, p-KIF11 Invitrogen PA5-38647, alpha-tubulin Proteintech 66031-1-Ig, mouse Alexa Fluor 488 Invitrogen A21202, and rabbit Alexa flour 546 Invitrogen A10040. DAPI was used for nuclei counterstaining. […]
# [3] = system: peripheral neuropathy; experiment: von Frey behavioral testing; format: in vivo, mouse; conditions: mice, 2 mg/kg paclitaxel i.p. x4
# Description: as §1
# [4] = system: dfMTs in keratinocytes; experiment: dfMT fascicle width; format: in vivo, zebrafish; conditions: 96 hr
# Protocol: The stock solution was divided into 20-30 μl aliquots and stored at −20 °C until use (maximal 6 months). Immediately prior to use, paclitaxel was diluted in Ringer's solution and added to dechorionated larval zebrafish. The larval fish were placed individually or in small groups into wells of a 12-well plate containing the treatment solutions. The control group was 0.05% DMSO. Plates were incubated at 28.5 °C and protected from light. Treatment lengths are indicated in the Drawings, Description of the Drawings, and Examples where appropriate. […] EMD534085, Eg5 inhibitor (MedChemExpress, Cat. No. HY-15000) was diluted in 100% DMSO to make a 10 mM stock solution and stored at −20 °C. […] The solutions were exchanged every 48 hr.
# Larval fish were transferred into […] glass vials and fixed in 4% paraformaldehyde (PFA)/1× Phosphate-buffered saline (PBS) for 1.5 hr at room temperature, with gentle rocking. Following a 5-minute incubation in 1×PBS+0.1% Tween-20 (PBST), zebrafish were permeabilized in 1×PBS+0.1% Triton X-100 for 10-30 min. Larval fish were transferred into 2 ml reaction tubes and incubated in blocking buffer (1×PBST+5% BSA) for 30 min at room temperature, with rocking. […]
# dfMT thicknesses (defined as the mean width of a given dfMT) was manually measured at high magnification using the Slice mode in Imaris and the Line tool for measuring the distance between two points. […]
structure (smiles),measurement,setting,value
CC(=O)O[C@H]1C(=O)[C@@]2(C)[C@H]([C@H](OC(=O)c3ccccc3)[C@]3(O)C[C@H](OC(=O)[C@H](O)[C@@H](NC(=O)c4ccccc4)c4ccccc4)C(C)=C1C3(C)C)[C@]1(OC(C)=O)CO[C@@H]1C[C@@H]2O [paclitaxel],"expression of Cdk1, Aurka, Aurkb and Kif11",[1],upregulated during peak neuropathy
same,expression of Cyba and Cybb,[1],upregulated at D23
same,"expression of checkpoint regulators Plk1, Cdc20, Ndc80, Bub1c, Dlgap5",[1],co-upregulation from D7 onward
same,total and phospho-Eg5 levels,[2],increased total and phospho-Eg5 levels
same,day of peak neuropathy,[3],7 days
same,fascicle width of dMTs,[4]; 100 nM paclitaxel,6.0±0.49 μm
same,fascicle width of dMTs,[4]; 22 μM paclitaxel,3.4±0.17 μm
